Patent US12286632B2, “Rationally-designed synthetic peptide shuttle agents for delivering polypeptide cargos from an extracellular space to the cytosol and/or nucleus of a target eukaryotic cell, uses thereof, methods and kits relating to same” (Feldan Bio Inc., priority 2016, dated 2025)

Assays:
HT2 cells = assay: GFP-NLS transduction in different adherent and suspension cells (flow cytometry, Pos cells % and viability %); format: cell-based; conditions: Protocol C, 5 μM shuttle, 5 μM GFP-NLS, 15 seconds
Protocol: The ability of the shuttle agent His-CM18-PTD4 to deliver GFP-NLS to the nuclei of different adherent and suspension cells using Protocols B (adherent cells) or C (suspension cells) as described in Example 9.1 was examined. The cell lines tested included: HeLa, Balb3T3, HEK 293T, CHO, NIH3T3, Myoblasts, Jurkat, THP-1, CA46, and HT2 cells, which were cultured as described in Example 1. GFP-NLS (5 μM; see Example 5.1) was co-incubated with 35 μM of His-CM18-PTD4 and exposed to adherent cells for 10 seconds (Protocol B), or was co-incubated with 5 μM of His-CM18-PTD4 and exposed to suspension cells for 15 seconds (Protocol C). […] “Pos cells (%)” is the mean percentages of all cells that emanate a GFP signal.

HeLa cells = assay: HOXB4-WT transduction, immuno-labelling and visualization by microscopy; format: cell-based, Human; conditions: HOXB4-WT 25 μM; shuttle 35 μM; 10 seconds, Protocol B
Protocol: Adherent cells were plated on a sterile glass strip at 1.5×10^5 cells per well in a 24-plate well and incubated overnight at 37° C. For fixation, cells were incubated in 500 μL per well of formaldehyde (3.7% v/v) for 15 minutes at room temperature, and washed 3 times for 5 minutes with PBS. For permeabilization, cells were incubated in 500 μL per well of Triton™ X-100 (0.2%) for 10 minutes at room temperature, and washed 3 times for 5 minutes with PBS. For blocking, cells were incubated in 500 μL per well of PBS containing 1% BSA (PBS/BSA) for 60 minutes at room temperature. Primary mouse monoclonal antibody was diluted PBS/BSA (1%). Cells were incubated in 30 μL of primary antibody overnight at 4° C. Cells were washed 3 times for 5 minutes with PBS. Secondary antibody was diluted in PBS/BSA (1%) and cells were incubated in 250 μL of secondary antibody 30 minutes at room temperature in the dark. Cells were washed 3 times for 5 minutes with PBS. […]
Recombinant HOXB4-WT transcription factor (25 μM; Example 14.1) was co-incubated with 35 μM of His-CM18-PTD4 and exposed to HeLa cells for 10 seconds using Protocol B as described in Example 9.1. […] The cells were visualized by bright field and fluorescence microscopy at 20× and 40× magnifications as described in Example 3.2, and sample results are shown in FIG. 45. […]

Compound: CC[C@H](C)[C@H](NC(=O)[C@H](CCCCN)NC(=O)[C@H](CCCCN)NC(=O)[C@H](Cc1ccccc1)NC(=O)[C@H](CC(C)C)NC(=O)[C@H](CCCCN)NC(=O)[C@H](Cc1c[nH]c2ccccc12)NC(=O)[C@H](CCCCN)NC(=O)[C@H](Cc1c[nH]cn1)NC(=O)[C@H](Cc1c[nH]cn1)NC(=O)[C@H](Cc1c[nH]cn1)NC(=O)[C@H](Cc1c[nH]cn1)NC(=O)[C@H](Cc1c[nH]cn1)NC(=O)[C@@H](N)Cc1c[nH]cn1)C(=O)NCC(=O)N[C@@H](C)C(=O)N[C@H](C(=O)N[C@@H](CC(C)C)C(=O)N[C@@H](CCCCN)C(=O)N[C@H](C(=O)N[C@@H](CC(C)C)C(=O)N[C@H](C(=O)N[C@H](C(=O)NCC(=O)N[C@@H](Cc1ccc(O)cc1)C(=O)N[C@@H](C)C(=O)N[C@@H](CCCNC(=N)N)C(=O)N[C@@H](C)C(=O)N[C@@H](C)C(=O)N[C@@H](C)C(=O)N[C@@H](CCCNC(=N)N)C(=O)N[C@@H](CCC(N)=O)C(=O)N[C@@H](C)C(=O)N[C@@H](CCCNC(=N)N)C(=O)N[C@@H](C)C(=O)O)[C@@H](C)O)[C@@H](C)O)C(C)C)C(C)C [His-CM18-PTD4]
- Cell viability (%) (±St. Dev.; n = 3) (HT2 cells): 90.6 ± 1.5%
- Mean % cells with GFP signal (±St. Dev.; n = 3) (HT2 cells): 30.5 ± 2.5%
- HOXB4-WT nuclear delivery (immuno-labelling) (HeLa cells): HOXB4-WT was successfully delivered to the nucleus after 30 min
